{"source": "patent US10888536B1", "about": "“Method of improvement of insulin sensitivity in obese patients” (FOOYIN UNIVERSITY, priority 2019, dated 2021)", "key": {"[1]": {"system": "obese rats", "assay": "Fasting serum insulin in high fat diet obese rats (Trial D)", "format": "in vivo, Wistar male rats", "conditions": "1 and 3 ppm propanamide in high fat diet for 4 weeks (groups D2 and D3), fasted 18 hours, 23rd week (FIG. 7)", "protocol": "(§1) Wistar male rats were used as the animal model in Trial (D). […] The obese rats of group D1 were then fed by the high fat diet without propanamide for another 4 weeks (total 23 weeks), while the obese rats of group D2 and D3 were fed by the high fat diet respectively containing 1 ppm and 3 ppm propanamide for further 4 weeks, The normal rats of group D0 were fed by normal diet for 23 weeks (total 23 weeks). At the 22th week, the oral glucose tolerance tests (OGTT) were performed as following: the rats of groups D0-D3 were fasted for 18 hours, and then were administered a 20% glucose solution (2 g glucose/kg body weight) by gavage. Blood samples were collected and the glucose concentrations were detected at 0, 30, 60, 90, and 120 minutes after glucose loading. At 23th week, the rats of groups D0-D3 were fasted for 18 hours before scarification, and the serum were analyzed the level of insulin."}, "[2]": {"system": "mouse macrophage (J774A.1 cell line)", "assay": "ATP level in J774A.1 cells by ATP luminometer (Trial A)", "format": "cell-based", "protocol": "To evaluate propanamide can increase of ATP synthesis, mouse macrophage (J774A.1 cell line) was used as the cell model. The J774A.1 cells without treatment were used as group A0. ATP level in the J774A.1 cells of groups A0-A5 were analyzed by ATP luminometer, respectively. The unit of ATP level is relative light unit (R.L.U)."}, "[3]": {"system": "obese rats", "assay": "Oral glucose tolerance test (OGTT) in high fat diet obese rats (Trial D)", "format": "in vivo, Wistar male rats", "protocol": "as §1, with “loading.” for “loading. At 23th week, the rats of groups D0-D3 were fasted for 18 hours before scarification, and the serum were analyzed the level of insulin.”"}, "[4]": {"system": "TNF-α", "assay": "TNF-α level in medium of J774A.1 cells with or without LPS (Trial B)", "format": "cell-based, mouse", "protocol": "The increase of cellular ATP can change the activity of macrophage, inhibiting the production of the proinflammatory cytokine, TNF-α, as well as the inflammation. After 15 minutes, 200 ng/ml lipopolysaccharide (LPS) was used to induce the inflammation in the J774A.1 cells of groups B1, B3 and B5. The medium of the J774A.1 cells was collected, and the TNF-α level in the medium was detected by a commercial kit."}, "[5]": {"system": "obese mice", "assay": "Fasting blood glucose in high fat diet obese mice (Trial C)", "format": "in vivo, Male ICR mice", "conditions": "high fat diet containing 3 ppm propanamide for 2 weeks (group C2), fasted 18 hours (FIG. 5)", "source_text": "Male ICR mice were used as the animal model in Trial (C). […] The obese mice of group C1 were then fed by the high fat diet for another 2 weeks, while the obese mice of group C2 were fed by the high fat diet containing 3 ppm propanamide for further 2 weeks. The normal mice of group C0 were fed by normal diet for 19 weeks. After 19 weeks, the mice of groups C0-C2 were sacrificed, and the effect of propanamide on reducing the accumulation of visceral fat was estimated by weight of epididymal fat (% of body weight). Before being sacrificed, the mice of groups C0-C2 were fasted for 18 hours, and the levels of fasting blood glucose of the mice were measured. Referring to FIG. 5, the levels of fasting blood glucose of the obese mice fed by the high fat diet (group C1) were higher than that of the normal mice fed by the normal diet (group C0)."}}, "data": [{"smiles": "CCC(N)=O", "note": "[propanamide]", "values": [{"measurement": "fasting serum insulin", "setting": "[1]", "value": "reduced to normal level"}, {"measurement": "dose dependence of ATP production", "setting": "[2]; concentration below 4 μM, 6 hours (FIG. 2)", "value": "dose-dependent response"}, {"measurement": "ATP level in the J774A.1 cells", "setting": "[2]; propanamide 0.04-400 μM, 6 hours, vs untreated cells (FIG. 2)", "value": "effectively elevate ATP level"}, {"measurement": "area under curve (AUC) of blood glucose in OGTT", "setting": "[3]; 1 and 3 ppm propanamide in high fat diet (groups D2 and D3) (FIG. 6b)", "value": "decreased significantly"}, {"measurement": "blood glucose during OGTT vs group D1", "setting": "[3]; 1 ppm and 3 ppm propanamide in high fat diet (groups D2 and D3), 120 minutes after glucose loading (FIG. 6a)", "value": "significantly lower"}, {"measurement": "blood glucose in untreated obese rats (group D1) relative to group D2 during OGTT", "setting": "[3]; 1 ppm propanamide in high fat diet (group D2), 90 minutes to 120 minutes after glucose loading (FIG. 6a)", "value": "evidently higher"}, {"measurement": "production of TNF-α not induced by LPS", "setting": "[4]; propanamide 4 and 40 μM (groups B2 and B4), no LPS (FIG. 3)", "value": "also inhibit the production of TNF-α"}, {"measurement": "production of TNF-α induced by LPS", "setting": "[4]; propanamide 4 and 40 μM (groups B3 and B5), 200 ng/ml LPS after 15 minutes (FIG. 3)", "value": "effectively inhibit the production of TNF-α induced by LPS"}, {"measurement": "levels of fasting blood glucose", "setting": "[5]", "value": "decreased significantly"}]}]}
